Each compound was assayed against T1, GST-tagged-Wee1 kinase (Homo sapiens, UniProt P30291) (assay: Wee1 time-resolved fluorescence equilibrium binding assay (displacement of Oregon Green-labeled ATP-competitive kinase probe)). Conditions: read-out: Wee-1 inhibition (Ki).
T1 construct: purchased Carnabio (Carna Biosciences) 05-177
T1 sequence (P30291 whole entry): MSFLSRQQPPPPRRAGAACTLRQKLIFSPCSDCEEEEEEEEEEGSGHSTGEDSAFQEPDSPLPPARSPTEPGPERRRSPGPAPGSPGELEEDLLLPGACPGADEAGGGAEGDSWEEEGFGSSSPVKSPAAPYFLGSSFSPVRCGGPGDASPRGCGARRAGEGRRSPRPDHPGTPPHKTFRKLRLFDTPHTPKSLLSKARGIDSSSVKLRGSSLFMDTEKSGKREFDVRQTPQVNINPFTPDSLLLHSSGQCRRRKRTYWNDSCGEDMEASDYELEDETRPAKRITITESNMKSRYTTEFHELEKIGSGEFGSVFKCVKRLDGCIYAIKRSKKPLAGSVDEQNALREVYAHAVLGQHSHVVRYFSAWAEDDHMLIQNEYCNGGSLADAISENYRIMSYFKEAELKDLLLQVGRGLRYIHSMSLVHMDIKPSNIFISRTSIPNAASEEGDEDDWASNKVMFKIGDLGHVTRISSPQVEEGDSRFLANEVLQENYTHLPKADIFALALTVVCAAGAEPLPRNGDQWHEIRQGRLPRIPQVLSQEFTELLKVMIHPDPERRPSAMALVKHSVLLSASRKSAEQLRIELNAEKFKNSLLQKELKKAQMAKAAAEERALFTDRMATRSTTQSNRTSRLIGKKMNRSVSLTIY
Method: Wee1 kinase was assayed using a time-resolved fluorescence equilibrium binding assay monitoring displacement of a rapidly reversible Oregon Green-labeled ATP-competitive kinase probe (N-(2-(2-(2-(4-(4-(5-chloro-4-(2-(1-hydroxycyclobutyl)thiazol-5-yl)-1H-pyrrolo[2,3-b]pyridin-2-yl)phenyl)piperazin-1-yl)ethoxy)ethoxy)ethyl)-2′,7′-difluoro-3′,6′-dihydroxy-3-oxo-3H-spiro[isobenzofuran-1,9′-xanthene]-5-carboxamide) by competitive Wee1 inhibitors.
Table 1 depicts enzyme inhibition data (Ki) for exemplary compounds.
Compound `O=C(c1ccc(Nc2ncc3c(=O)n(-c4ccccc4Cl)c4nccn4c3n2)cc1)N1CCC(O)CC1` [Example 48, 6-(2-chlorophenyl)-2-({4-[(4-hydroxypiperidin-1-yl)carbonyl]phenyl}amino)imidazo[1,2-a]pyrimido[5,4-e]pyrimidin-5(6H)-one] has a Ki of 10 to 100 nM.
`CC1(C)CN(Cc2cccnc2)Cc2cc(Nc3ncc4c(=O)n(-c5ccccc5Cl)c5nccn5c4n3)ccc21` [Example 131, 6-(2-chlorophenyl)-2-{[4,4-dimethyl-2-(pyridin-3-ylmethyl)-1,2,3,4-tetrahydroisoquinolin-7-yl]amino}imidazo[1,2-a]pyrimido[5,4-e]pyrimidin-5(6H)-one] was tested, and the Ki was less than 10 nM.
Work on `O=C1CNCCN1c1ccc(Nc2ncc3c(=O)n(-c4c(Cl)cccc4Cl)c4nccn4c3n2)cc1` [Example 174, 6-(2,6-dichlorophenyl)-2-{[4-(2-oxopiperazin-1-yl)phenyl]amino}imidazo[1,2-a]pyrimido[5,4-e]pyrimidin-5(6H)-one] yielded a Ki of less than 10 nM.
In the case of `CN1CCC(c2ccc(Nc3ncc4c(=O)n(-c5c(Cl)cccc5Cl)c5nccn5c4n3)cc2)CC1` [Example 287, 6-(2,6-dichlorophenyl)-2-{[4-(1-methylpiperidin-4-yl)phenyl]amino}imidazo[1,2-a]pyrimido[5,4-e]pyrimidin-5(6H)-one], the Ki is reported as less than 10 nM.
For `CCCNC1Cc2ccc(Nc3ncc4c(=O)n(-c5c(Cl)cccc5Cl)c5nccn5c4n3)cc2C1` (stereo not drawn) [Example 297, 6-(2,6-dichlorophenyl)-2-{[2-(propylamino)-2,3-dihydro-1H-inden-5-yl]amino}imidazo[1,2-a]pyrimido[5,4-e]pyrimidin-5(6H)-one], the Ki was less than 10 nM.
`CN1CCN(c2ccc(Nc3ncc4c(=O)n(-c5c(Cl)cccc5Cl)c5nccn5c4n3)cc2)CC1` [Example 55, 6-(2,6-dichlorophenyl)-2-{[4-(4-methylpiperazin-1-yl)phenyl]amino}imidazo[1,2-a]pyrimido[5,4-e]pyrimidin-5(6H)-one] showed a Ki of less than 10 nM.
In the case of `CNS(=O)(=O)Cc1ccc(Nc2ncc3c(=O)n(-c4ccccc4Cl)c4nccn4c3n2)cc1` [Example 293, 1-(4-{[6-(2-chlorophenyl)-5-oxo-5,6-dihydroimidazo[1,2-a]pyrimido[5,4-e]pyrimidin-2-yl]amino}phenyl)-N-methylmethanesulfonamide], the Ki is reported as 10 to 100 nM.
For `O=c1c2cnc(Nc3ccc(N4CCC(N5CCCC5)CC4)cc3)nc2n2ccnc2n1-c1ccccc1Cl` [Example 190, 6-(2-chlorophenyl)-2-({4-[4-(pyrrolidin-1-yl)piperidin-1-yl]phenyl}amino)imidazo[1,2-a]pyrimido[5,4-e]pyrimidin-5(6H)-one], the Ki was less than 10 nM.
`CC1(C)CN(Cc2ccsc2)Cc2cc(Nc3ncc4c(=O)n(-c5ccccc5Cl)c5nccn5c4n3)ccc21` [Example 132, 6-(2-chlorophenyl)-2-{[4,4-dimethyl-2-(thiophen-3-ylmethyl)-1,2,3,4-tetrahydroisoquinolin-7-yl]amino}imidazo[1,2-a]pyrimido[5,4-e]pyrimidin-5(6H)-one] gave a Ki of less than 10 nM.
With `O=c1c2cnc(Nc3ccc(N4CCN5CCC[C@@H]5C4)cc3)nc2n2ccnc2n1-c1c(F)cccc1Cl` [Example 244, 6-(2-chloro-6-fluorophenyl)-2-({4-[(8aR)-hexahydropyrrolo[1,2-a]pyrazin-2(1H)-yl]phenyl}amino)imidazo[1,2-a]pyrimido[5,4-e]pyrimidin-5(6H)-one] the Ki was less than 10 nM.
Work on `O=c1c2cnc(Nc3ccc(N4CCC[C@H]4C(F)(F)F)cc3)nc2n2ccnc2n1-c1ccccc1Cl` [Example 352, 6-(2-chlorophenyl)-2-({4-[(2S)-2-(trifluoromethyl)pyrrolidin-1-yl]phenyl}amino)imidazo[1,2-a]pyrimido[5,4-e]pyrimidin-5(6H)-one] yielded a Ki of 10 to 100 nM.
`O=c1c2cnc(Nc3ccc4snnc4c3)nc2n2ccnc2n1-c1c(Cl)cccc1Cl` [Example 181, 2-(1,2,3-benzothiadiazol-5-ylamino)-6-(2,6-dichlorophenyl)imidazo[1,2-a]pyrimido[5,4-e]pyrimidin-5(6H)-one] showed a Ki of 10 to 100 nM.
